Measured values from patent publication US9024044B2, “Heteroarylcarboxylic acid ester derivative” (Ajinomoto Co., Inc., priority 2012, dated 2015).

Tests used:
[1] = biological target: recombinant human enteropeptidase (Homo sapiens (Human), UniProt P98073); test: Measurement of enteropeptidase inhibitory activity; format: biochemical; conditions: substrate Gly-Asp-Asp-Asp-Asp-Lys-β-Naphtylamide, Tris-HCl pH 8.0, Dixon plot
Experimental: Measurement of Enteropeptidase Inhibitory Activity
Using a 96 well plate (#3915, Costar), a test compound (25 μL), 400 mM Tris-HCl buffer (pH 8.0, 25 μL) and 0.5 mg/mL fluorescence enzyme substrate (Gly-Asp-Asp-Asp-Asp-Lys-β-Naphtylamide, 25 μL) were mixed, and recombinant human enteropeptidase (R&D Systems, Inc., 25 μL) was added. Using a fluorescence plate reader fmax (Molecular Devices, Inc.), the reaction rate was measured from the time-course changes at excitation wavelength 320 nm and fluorescence wavelength 405 nm. The Ki value was calculated from the concentration of the test compound, reciprocal of reaction rate, and Km value of the enzyme substrate, and by using Dixon plot.

human trypsin = human trypsin (Homo sapiens, UniProt P07477); test: Measurement of trypsin inhibitory activity; format: biochemical; conditions: substrate Boc-Phe-Ser-Arg-AMC, Tris-HCl pH 8.0, Dixon plot
Experimental: Measurement of Trypsin Inhibitory Activity
Using a 96 well plate (#3915, Costar), a test compound (25 μL) was mixed with 20 μM fluorescence enzyme substrate (Boc-Phe-Ser-Arg-AMC, 50 μL) mixed with 200 mM Tris-HCl buffer (pH 8.0), and human trypsin (Sigma, 25 μL) was added. Using a fluorescence plate reader fmax (Molecular Devices, Inc.), the reaction rate was measured from the time-course changes at excitation wavelength 355 nm and fluorescence wavelength 460 nm. The Ki value was calculated from the concentration of the test compound, reciprocal of reaction rate, and Km value of the enzyme substrate, and by using Dixon plot.

Sequence of recombinant human enteropeptidase (P98073 whole entry): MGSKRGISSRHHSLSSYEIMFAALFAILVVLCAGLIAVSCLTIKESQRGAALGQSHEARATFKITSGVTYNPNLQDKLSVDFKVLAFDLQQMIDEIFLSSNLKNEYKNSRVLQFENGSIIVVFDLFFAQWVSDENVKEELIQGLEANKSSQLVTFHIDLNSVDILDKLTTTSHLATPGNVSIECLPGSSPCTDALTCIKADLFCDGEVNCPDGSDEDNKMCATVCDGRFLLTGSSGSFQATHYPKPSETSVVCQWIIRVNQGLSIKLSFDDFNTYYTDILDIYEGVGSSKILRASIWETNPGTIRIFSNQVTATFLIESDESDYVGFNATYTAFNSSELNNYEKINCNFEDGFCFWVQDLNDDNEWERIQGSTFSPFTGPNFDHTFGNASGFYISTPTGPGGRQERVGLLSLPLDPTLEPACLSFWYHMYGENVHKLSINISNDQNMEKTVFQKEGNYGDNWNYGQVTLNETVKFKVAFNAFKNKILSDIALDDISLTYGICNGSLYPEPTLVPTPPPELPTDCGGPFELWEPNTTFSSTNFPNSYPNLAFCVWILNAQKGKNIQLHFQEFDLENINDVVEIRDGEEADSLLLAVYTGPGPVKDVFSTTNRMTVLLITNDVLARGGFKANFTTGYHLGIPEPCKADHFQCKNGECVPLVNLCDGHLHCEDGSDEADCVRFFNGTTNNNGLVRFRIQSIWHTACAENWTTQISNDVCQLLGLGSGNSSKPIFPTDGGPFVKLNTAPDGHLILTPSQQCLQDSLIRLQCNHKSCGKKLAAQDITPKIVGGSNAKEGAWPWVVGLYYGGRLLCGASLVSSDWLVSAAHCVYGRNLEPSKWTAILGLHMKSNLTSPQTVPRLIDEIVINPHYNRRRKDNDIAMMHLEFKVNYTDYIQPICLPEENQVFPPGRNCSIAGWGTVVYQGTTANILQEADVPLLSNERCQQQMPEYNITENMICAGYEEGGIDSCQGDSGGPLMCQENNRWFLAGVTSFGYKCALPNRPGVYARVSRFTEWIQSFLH

| Structure (SMILES) | Ki [1] [nM] | Ki (human trypsin) [nM] |
| --- | --- | --- |
| CC(C)(Cc1ccc(C(=O)Oc2ccc(C(=N)N)cc2F)s1)C(=O)Nc1ccc(C(=O)O)c(C(=O)O)c1 [Compound 68] | 0.24 | 0.21 |
| CC(C)(Cc1ccc(C(=O)Oc2ccc(C(=N)N)cc2F)s1)C(=O)N[C@@H](C(=O)O)c1ccc(O)cc1 [Compound 69] | 0.72 | 1.14 |
| CCC(CC)(Cc1ccc(C(=O)Oc2ccc(C(=N)N)cc2F)s1)C(=O)NC1(C(=O)O)CC1 [Compound 79] | 1.12 | 2.19 |
| COc1ncccc1NC(=O)C(C)(C)Cc1ccc(C(=O)Oc2ccc(C(=N)N)cc2F)s1 [Compound 51] | 3.75 | 1.87 |
| CC(C)(Cc1ccc(C(=O)Oc2ccc(C(=N)N)cc2F)s1)C(=O)Nc1cccnc1 [Compound 39] | 7.56 | 3.6 |
| CC(C)(Cc1ccc(C(=O)Oc2ccc(C(=N)N)cc2F)s1)C(=O)N1CCC[C@H]1C(=O)O [Compound 8] | 0.87 | 1.69 |
| CCC(CC)(Cc1ccc(C(=O)Oc2ccc(C(=N)N)cc2F)s1)C(=O)N[C@@H](C)C(=O)O [Compound 27] | 0.73 | 1.67 |
| CC(C)(Cc1ccc(C(=O)Oc2ccc(C(=N)N)cc2F)s1)C(=O)N1C[C@H]1C(=O)O [Compound 61] | 1.13 | 0.96 |
| CC(C)(Cc1ccc(C(=O)Oc2ccc(C(=N)N)cc2F)s1)C(=O)Nc1ccc[nH]c1=O [Compound 40] | 6.66 | 4.54 |
| CC(C)(Cc1ccc(C(=O)Oc2ccc(C(=N)N)cc2F)s1)C(=O)NC(CCC(=O)O)(CCC(=O)O)CCC(=O)O [Compound 58] | 0.71 | 1.59 |
| CC(C)(Cc1ccc(C(=O)Oc2ccc(C(=N)N)cc2F)s1)C(=O)Nc1ccccc1C(=O)O [Compound 73] | 2.41 | 3.65 |
| CCCN(CC(=O)O)C(=O)C(CC)(CC)Cc1ccc(C(=O)Oc2ccc(C(=N)N)cc2F)s1 [Compound 20] | 2.61 | 7.91 |
| CC(C)(Cc1ccc(C(=O)Oc2ccc(C(=N)N)cc2F)s1)C(=O)N[C@H]1CC[C@H](C(=O)O)CC1 [Compound 78] | 1.53 | 2.57 |
| CCC(CC)(Cc1ccc(C(=O)Oc2ccc(C(=N)N)cc2F)s1)C(=O)N[C@H](CC(=O)O)C(=O)O [Compound 25] | 0.26 | 1.04 |
| CC(C)(Cc1ccc(C(=O)Oc2ccc(C(=N)N)cc2F)s1)C(=O)N1C[C@@H]1C(=O)O [Compound 54] | 1.76 | 1.53 |
| CC(C)(Cc1ccc(C(=O)Oc2ccc(C(=N)N)cc2F)s1)C(=O)N1CC[C@@H](C(=O)O)C1 [Compound 33] | 1.02 | 2 |
| CCC(CC)(Cc1ccc(C(=O)Oc2ccc(C(=N)N)cc2F)s1)C(=O)N[C@H](CO)C(=O)O [Compound 12] | 0.94 | 1.78 |
| CC(C)(Cc1ccc(C(=O)Oc2ccc(C(=N)N)cc2F)s1)C(=O)N[C@@H](CO)C(=O)O [Compound 4] | 0.46 | 0.75 |
| CCC(CC)(Cc1ccc(C(=O)Oc2ccc(C(=N)N)cc2F)s1)C(=O)N[C@@H](CC(=O)O)C(=O)O [Compound 19] | 0.33 | 0.82 |
| CN(CC(=O)O)C(=O)C(C)(C)Cc1ccc(C(=O)Oc2ccc(C(=N)N)cc2F)s1 [Compound 7] | 0.41 | 1.33 |
| CC(C)(Cc1ccc(C(=O)Oc2ccc(C(=N)N)cc2F)s1)C(=O)N1CC(C(=O)O)C1 [Compound 72] | 0.63 | 1.85 |
| CC(C)(Cc1ccc(C(=O)Oc2ccc(C(=N)N)cc2F)s1)C(=O)NC(C)(C)C(=O)O [Compound 6] | 0.69 | 0.95 |
| CC(C)(Cc1ccc(C(=O)Oc2ccc(C(=N)N)cc2F)s1)C(=O)N[C@H](C(=O)O)c1ccccc1 [Compound 37] | 0.96 | 1.51 |
| CCC(CC)(Cc1ccc(C(=O)Oc2ccc(C(=N)N)cc2F)s1)C(=O)N1CCC[C@H]1C(=O)O [Compound 17] | 1.69 | 6.38 |
| CC(C)(Cc1ccc(C(=O)Oc2ccc(C(=N)N)cc2F)s1)C(=O)Nc1cc(C(=O)O)ccc1C(=O)O [Compound 75] | 0.39 | 3.72 |
